Like-named read-outs stand apart in the source and are kept apart here.
Columns and labels:
[1] = Solubility of fullerene derivatives in toluene (HPLC determination); assay type: physicochemical
Protocol: The solubility of a fullerene derivative can be determined, for example, by diluting a solution of the fullerene derivative with a good solvent, e.g., toluene, and examining the dilution with an analyzer such as, e.g., a high-performance liquid chromatograph (HPLC). More specifically, the procedure is as follows. A dilution of the fullerene derivative solution is analyzed with an HPLC having an ultraviolet/visible detector to determine that peak intensity for the fullerene derivative which is obtained from the absorbance of an ultraviolet light having a specific wavelength (e.g., 290 nm). The concentration of the fullerene derivative in the dilution of the fullerene derivative solution is determined from a calibration curve obtained beforehand from fullerene derivative standard solutions having known concentrations (prepared using the solvent used for diluting the fullerene derivative solution). This concentration value is multiplied by the dilution ratio to thereby determine the fullerene derivative concentration in the original fullerene derivative solution.

[2] = TG-DTA examination in air atmosphere; assay type: physicochemical; conditions: for weight loss (TG-DTA): 300° C. (in air), heating rate 10° C./min
Protocol: Compounds 1 to 6 synthesized in (1) to (6) above were examined by TG-DTA (thermogravimetric-differential thermal analysis) in order to investigate the behavior thereof in thermal decomposition. The examination was made with apparatus for both differential thermal analysis and thermogravimetry TG/DTA6200, manufactured by SII Nano Technology Inc., in an air atmosphere (flow rate, 200 mL/min) under the conditions of a heating rate of 10° C./min. In [60]fullerene, a large weight loss accompanied by heat generation began to be observed at around 500° C. This weight loss was due to oxidation/combustion. […] This large weight loss is thought to be attributable to the pyrolysis of the fullerene derivative.

[3] = TG examination in nitrogen atmosphere; assay type: physicochemical; conditions: for weight loss (TG-DTA): heating rate 10° C./min; for temperature of weight loss attributable to pyrolysis, compared with air: in nitrogen, result in words
Protocol: The examination was made with apparatus for both differential thermal analysis and thermogravimetry TG/DTA6200, manufactured by SII Nano Technology Inc., in a nitrogen atmosphere (flow rate, 200 mL/min) under the conditions of a heating rate of 10° C./min.

[4] = Washing of coating films with toluene before and after heat treatment; assay type: physicochemical; conditions: coating film
Protocol: A 5% by mass PGMEA solution of each of Compounds 1, 2, and 5 and a 5% by mass cyclohexanone solution of each of Compounds 3 and 4 were prepared. Each solution was applied to a glass substrate (50×50 mm) with a spin coater and dried at 100° C. Thereafter, the coating films were examined with an optical microscope. As a result, these coating films were ascertained to be even. These coating films were washed with toluene. As a result, the films were removed. It was thus ascertained that the coating films from which the solvent had been removed were soluble in toluene.
The coating films of Compounds 1 to 5 each formed on a glass substrate in (8) were placed in an electric furnace heated at 300° C. and heat-treated for 10 minutes in an air atmosphere.
The fullerene films obtained by the heat treatment of the coating films of Compounds 1 to 3 were examined by X-ray diffractometry (XRD) with RINT 2500, manufactured by Rigaku Corp. […] Measuring conditions are as follows.
The films which had undergone the heat treatment(s) were washed with toluene. […] It can be seen that although the fullerene derivatives applied in film form had been soluble in toluene solvent, the derivatives became insoluble, through the heat treatment(s), in the solvent in which the fullerene is soluble.

[5] = cited from earlier work
[6] = after heat treatment (300° C./in air), 10 minutes

C60(tBu-isonipecotate)4(O) [Compound 5]
Solubility in toluene [1]: ≥ 10%
weight loss (TG-DTA) [2]: 37%
temperature of weight loss attributable to pyrolysis of the fullerene derivative ([2]; in air): around 200 °C
weight loss (TG-DTA) ([3]; 300° C. (in nitrogen)): 44%
temperature of weight loss attributable to pyrolysis, compared with air [3]: almost the same temperature as in air
Solubility in toluene [4, 6]: insoluble
Solubility in toluene ([4]; before heat treatment): soluble

N-(4-hydroxyphenyl)-2-n-dodecylpyrrolidine-C60 [Compound 3]
Solubility in toluene [1]: 6%
weight loss attributable to fullerene derivative pyrolysis ([2]; TG in air, result in words): No weight loss attributable to fullerene derivative pyrolysis was observed
weight loss (TG-DTA) ([3]; 600° C. (in nitrogen)): 12%
Solubility in toluene [4, 6]: soluble
Solubility in toluene ([4]; after heat treatment (500° C./in air), 10 minutes): insoluble
Solubility in toluene ([4]; before heat treatment): soluble

C60 (t-Butoxycarbonylmethylpiperazine)4(O) [Compound 6]
Solubility in toluene [1]: ≥ 10%
weight loss (TG-DTA) [2]: 38%
temperature of weight loss attributable to pyrolysis of the fullerene derivative ([2]; in air): around 200 °C
weight loss (TG-DTA) ([3]; 300° C. (in nitrogen)): 50%
temperature of weight loss attributable to pyrolysis, compared with air [3]: almost the same temperature as in air

c12c3c4c5c1c1c6c7c2c2c8c3c3c9c4c4c%10c5c5c1c1c6c6c%11c7c2c2c7c8c3c3c8c9c4c4c9c%10c5c5c1c1c6c6c%11c2c2c7c3c3c8c4c4c9c5c1c1c6c2c3c41 [[60]fullerene]
temperature of oxidation/combustion (large weight loss with heat generation / large exothermic peak) ([2]; in air): around 500 °C
solubility of [60]fullerene in the solvent ([5]; 1,2,3-trimethylbenzene): 4700 µg/mL
solubility of [60]fullerene in the solvent ([5]; 1,2,4-trichlorobenzene): 10400 µg/mL
solubility of [60]fullerene in the solvent ([5]; 1,2,4-trimethylbenzene): 17900 µg/mL
solubility of [60]fullerene in the solvent ([5]; 1,3,5-trimethylbenzene): 1500 µg/mL
solubility of [60]fullerene in the solvent ([5]; 1-methylnaphthalene): 33200 µg/mL
solubility of [60]fullerene in the solvent ([5]; 1-phenylnaphthalene): 50000 µg/mL
solubility of [60]fullerene in the solvent ([5]; N-methyl-2-pyrrolidone): 890 µg/mL
solubility of [60]fullerene in the solvent ([5]; bromobenzene): 2800 µg/mL
solubility of [60]fullerene in the solvent ([5]; chlorobenzene): 5700 µg/mL
solubility of [60]fullerene in the solvent ([5]; chloroform): 500 µg/mL
solubility of [60]fullerene in the solvent ([5]; cyclohexane): 50 µg/mL
solubility of [60]fullerene in the solvent ([5]; decalin): 4600 µg/mL
solubility of [60]fullerene in the solvent ([5]; dichloromethane): 250 µg/mL
solubility of [60]fullerene in the solvent ([5]; ethylbenzene): 2600 µg/mL
solubility of [60]fullerene in the solvent ([5]; m-dichlorobenzene): 2400 µg/mL
solubility of [60]fullerene in the solvent ([5]; m-xylene): 1400 µg/mL
solubility of [60]fullerene in the solvent ([5]; n-decane): 70 µg/mL
solubility of [60]fullerene in the solvent ([5]; n-dodecane): 90 µg/mL
solubility of [60]fullerene in the solvent ([5]; n-hexane): 40 µg/mL
solubility of [60]fullerene in the solvent ([5]; n-tetradecane): 126 µg/mL
solubility of [60]fullerene in the solvent ([5]; o-dichlorobenzene): 24600 µg/mL
solubility of [60]fullerene in the solvent ([5]; o-xylene): 8700 µg/mL
solubility of [60]fullerene in the solvent ([5]; p-xylene): 5900 µg/mL
solubility of [60]fullerene in the solvent ([5]; quinoline): 7200 µg/mL
solubility of [60]fullerene in the solvent ([5]; tetrahydrofuran): 37 µg/mL
solubility of [60]fullerene in the solvent ([5]; toluene): 2900 µg/mL
solubility of [60]fullerene in the solvent ([5]; xylene): 5200 µg/mL

From patent US20100317767A1, “FULLERENE FILM AND FULLERENE POLYMER BOTH PRODUCED FROM FULLERENE DERIVATIVE AND PROCESSES FOR PRODUCING THESE” (FRONTIER CARBON CORPORATION, priority 2006, published 2010)
